This passage reports ΔTm results from article PMC11357100 (2024).

A word on the ΔTm: it is the shift of the melting midpoint relative to a reference.

Structures are written as SMILES.

What all share (experiment): UV melting at 295 nm
Assay [1] deals with c-KIT1 (DNA, G4) AGGGAGGGCGCTGGGAGGAGGG
Conditions: 10 mM KCl, 90 mM LiCl; 10 mM Tris-HCl pH 7.2; 2 µM DNA, 3 equiv. ligand; Tm 52.9 ± 1.0 to 54.40 ± 0.60.

Assay [2] concerns RET (DNA, G4) GGGGCGGGGCGGGGCGGGGT
The following applies: 10 mM KCl, 90 mM LiCl; 10 mM Tris-HCl pH 7.2; 2 µM DNA, 3 equiv. ligand; Tm 75.30 ± 0.80 to 76.4 ± 1.2.

In assay [3] the test system is catG4 (DNA, G4) TGGGTAGGGCGGGTTGGGAAA
Conditions: 10 mM KCl, 90 mM LiCl; 10 mM Tris-HCl pH 7.2; 2 µM DNA, 3 equiv. ligand; Tm 63.30 ± 0.10 to 62.80 ± 0.30.

For assay [4], the system named is c-MYC (DNA, G4) TGAGGGTGGGTAGGGTGGGTAA
The following applies: 10 mM KCl, 90 mM LiCl; 10 mM Tris-HCl pH 7.2; 2 µM DNA, 3 equiv. ligand; Tm 79.10 ± 0.10 to 80.6 ± 1.7.

With `COc1nc2c(N)ncnc2[n+]2ccccc12`, the thermal shift (ΔTm) was 1.5 °C in assay [1], 1.1 °C in assay [2], -0.5 °C in assay [3] and 1.5 °C in assay [4].
